Species on record: Rattus norvegicus
Assay: DrugMatrix - Regimen: Daily Repeat
Assay type: toxicity, organism-based, Sprague-Dawley
Parameters: regimen Daily Repeat, gender Male, age 6-8 weeks
Settings: in vivo; for ALANINE AMINOTRANSFERASE / ALKALINE PHOSPHATASE / ASPARTATE AMINOTRANSFERASE / BLOOD UREA NITROGEN / CARBON DIOXIDE / CHLORIDE / CHOLESTEROL / CREATINE PHOSPHOKINASE / CREATININE / GLUCOSE / LACTATE DEHYDROGENASE / PHOSPHORUS / POTASSIUM / TOTAL BILIRUBIN / TOTAL PROTEIN / URIC ACID / ALBUMIN / SODIUM / LIPASE: tissue Plasma
[1] = po, 0 mg/kg, 72 h, tissue Blood, route oral GAVAGE, dose level Control, time 3 day, vehicle .5 % CMC
[2] = po, 0 mg/kg, 72 h, route oral GAVAGE, dose level Control, time 3 day, vehicle .5 % CMC
[3] = po, 33 mg/kg, 72 h, tissue Blood, route oral GAVAGE, dose level High, time 3 day, vehicle .5 % CMC
[4] = po, 33 mg/kg, 72 h, route oral GAVAGE, dose level High, time 3 day, vehicle .5 % CMC
[5] = po, […], 72 h, tissue Blood, route oral GAVAGE, dose 3.3 mg/Kg, dose level Low, time 3 day, vehicle .5 % CMC
[6] = po, […], 72 h, route oral GAVAGE, dose 3.3 mg/Kg, dose level Low, time 3 day, vehicle .5 % CMC
[7] = iv, 55 mg/kg, 72 h, tissue Blood, dose level Low, time 3 day, vehicle 100 % SALINE
[8] = iv, 55 mg/kg, 72 h, dose level Low, time 3 day, vehicle 100 % SALINE
[9] = iv, 55 mg/kg, 120 h, tissue Blood, dose level Low, time 5 day, vehicle 100 % SALINE
[10] = iv, 55 mg/kg, 120 h, dose level Low, time 5 day, vehicle 100 % SALINE

AURANOFIN
ABSOLUTE BASOPHIL [1]: 0 CELLS/uL | ABSOLUTE EOSINOPHIL [1]: 8.83 CELLS/uL | ABSOLUTE LYMPHOCYTE [1]: 7222.33 CELLS/uL | ABSOLUTE MONOCYTE [1]: 0 CELLS/uL | ABSOLUTE SEGMENTED NEUTROPHIL [1]: 752.17 CELLS/uL | BASOPHIL [1]: 0% | EOSINOPHIL [1]: 0.17% | ERYTHROCYTE COUNT [1]: 5.22 x10E6/uL | HEMATOCRIT [1]: 32.6% | HEMOGLOBIN [1]: 12.43 G/DL | LEUKOCYTE COUNT [1]: 7.98 x10E3/uL | LYMPHOCYTE [1]: 91.17% | MEAN CORPUSCULAR HEMOGLOBIN [1]: 23.87 pg | MEAN CORPUSCULAR HEMOGLOBIN CONCENTRATION [1]: 38.18 G/DL | MONOCYTE [1]: 0% | NUCLEATED RED BLOOD CELLS [1]: 0 /100WBC | PLATELET COUNT [1]: 1082.33 x10E3/uL | ALANINE AMINOTRANSFERASE [2]: 42.17 u/L | ALKALINE PHOSPHATASE [2]: 451.17 u/L | ASPARTATE AMINOTRANSFERASE [2]: 76.17 u/L | BLOOD UREA NITROGEN [2]: 13.33 mg/dL | CARBON DIOXIDE [2]: 31.67 mmol/L | CHLORIDE [2]: 96.5 MEQ/L | CHOLESTEROL [2]: 78 mg/dL | CREATINE PHOSPHOKINASE [2]: 216.5 u/L | CREATININE [2]: 0.22 mg/dL | GLUCOSE [2]: 137 mg/dL | LACTATE DEHYDROGENASE [2]: 138.5 u/L | PHOSPHORUS [2]: 12.68 mg/dL | POTASSIUM [2]: 6.23 MEQ/L | TOTAL BILIRUBIN [2]: 0.15 mg/dL | TOTAL PROTEIN [2]: 6.33 G/DL | URIC ACID [2]: 1.1 mg/dL | ABSOLUTE BASOPHIL [3]: 0 CELLS/uL | ABSOLUTE EOSINOPHIL [3]: 19 CELLS/uL | ABSOLUTE LYMPHOCYTE [3]: 6925.33 CELLS/uL | ABSOLUTE MONOCYTE [3]: 0 CELLS/uL | ABSOLUTE SEGMENTED NEUTROPHIL [3]: 722.33 CELLS/uL | BASOPHIL [3]: 0% | EOSINOPHIL [3]: 0.33% | ERYTHROCYTE COUNT [3]: 5.07 x10E6/uL | HEMATOCRIT [3]: 31.53% | HEMOGLOBIN [3]: 12.07 G/DL | LEUKOCYTE COUNT [3]: 7.67 x10E3/uL | LYMPHOCYTE [3]: 90.67% | MEAN CORPUSCULAR HEMOGLOBIN [3]: 23.77 pg | MEAN CORPUSCULAR HEMOGLOBIN CONCENTRATION [3]: 38.27 G/DL | MONOCYTE [3]: 0% | NEUTROPHIL [3]: 9% | NUCLEATED RED BLOOD CELLS [3]: 0 /100WBC | PLATELET COUNT [3]: 1030 x10E3/uL | ALANINE AMINOTRANSFERASE [4]: 55.67 u/L | ALBUMIN [4]: 3.8 G/DL | ALKALINE PHOSPHATASE [4]: 342.67 u/L | ASPARTATE AMINOTRANSFERASE [4]: 80.33 u/L | BLOOD UREA NITROGEN [4]: 13.33 mg/dL | CARBON DIOXIDE [4]: 31.67 mmol/L | CHOLESTEROL [4]: 93.33 mg/dL | CREATINE PHOSPHOKINASE [4]: 251.67 u/L | CREATININE [4]: 0.18 mg/dL | GLUCOSE [4]: 139 mg/dL | LACTATE DEHYDROGENASE [4]: 122 u/L | SODIUM [4]: 153.7 MEQ/L | TOTAL BILIRUBIN [4]: 0.2 mg/dL | TOTAL PROTEIN [4]: 5.87 G/DL | URIC ACID [4]: 1.13 mg/dL | ABSOLUTE BASOPHIL [5]: 0 CELLS/uL | ABSOLUTE EOSINOPHIL [5]: 46.33 CELLS/uL | ABSOLUTE LYMPHOCYTE [5]: 6434 CELLS/uL | ABSOLUTE MONOCYTE [5]: 30 CELLS/uL | ABSOLUTE SEGMENTED NEUTROPHIL [5]: 1123 CELLS/uL | BASOPHIL [5]: 0% | EOSINOPHIL [5]: 0.67% | ERYTHROCYTE COUNT [5]: 5.02 x10E6/uL | HEMATOCRIT [5]: 31.27% | HEMOGLOBIN [5]: 11.83 G/DL | LEUKOCYTE COUNT [5]: 7.63 x10E3/uL | LYMPHOCYTE [5]: 84.33% | MEAN CORPUSCULAR HEMOGLOBIN [5]: 23.57 pg | MEAN CORPUSCULAR HEMOGLOBIN CONCENTRATION [5]: 37.83 G/DL | MONOCYTE [5]: 0.33% | NEUTROPHIL [5]: 14.67% | NUCLEATED RED BLOOD CELLS [5]: 0.33 /100WBC | PLATELET COUNT [5]: 1052.33 x10E3/uL | ALANINE AMINOTRANSFERASE [6]: 42.33 u/L | ALBUMIN [6]: 4.1 G/DL | ALKALINE PHOSPHATASE [6]: 371 u/L | ASPARTATE AMINOTRANSFERASE [6]: 73 u/L | BLOOD UREA NITROGEN [6]: 13 mg/dL | CARBON DIOXIDE [6]: 33 mmol/L | CHLORIDE [6]: 97 MEQ/L | CHOLESTEROL [6]: 76.67 mg/dL | CREATINE PHOSPHOKINASE [6]: 140 u/L | CREATININE [6]: 0.18 mg/dL | GLUCOSE [6]: 143 mg/dL | LACTATE DEHYDROGENASE [6]: 96 u/L | LIPASE [6]: 8.33 u/L | POTASSIUM [6]: 6.12 MEQ/L | SODIUM [6]: 145.6 MEQ/L | TOTAL BILIRUBIN [6]: 0.17 mg/dL | TOTAL PROTEIN [6]: 6.17 G/DL | URIC ACID [6]: 1 mg/dL

GADOPENTETATE DIMEGLUMINE
ABSOLUTE BASOPHIL [7]: 0 CELLS/uL | ABSOLUTE EOSINOPHIL [7]: 43.67 CELLS/uL | ABSOLUTE LYMPHOCYTE [7]: 9839.33 CELLS/uL | ABSOLUTE MONOCYTE [7]: 219.67 CELLS/uL | ABSOLUTE SEGMENTED NEUTROPHIL [7]: 564 CELLS/uL | BASOPHIL [7]: 0% | EOSINOPHIL [7]: 0.33% | ERYTHROCYTE COUNT [7]: 5.53 x10E6/uL | HEMOGLOBIN [7]: 13.6 G/DL | LEUKOCYTE COUNT [7]: 10.67 x10E3/uL | LYMPHOCYTE [7]: 92.67% | MEAN CORPUSCULAR HEMOGLOBIN [7]: 24.63 pg | MEAN CORPUSCULAR HEMOGLOBIN CONCENTRATION [7]: 37.3 G/DL | MEAN CORPUSCULAR VOLUME [7]: 66.07 fL | MONOCYTE [7]: 2% | NEUTROPHIL [7]: 5% | NUCLEATED RED BLOOD CELLS [7]: 0 /100WBC | PLATELET COUNT [7]: 1301 x10E3/uL | ALANINE AMINOTRANSFERASE [8]: 40 u/L | ALKALINE PHOSPHATASE [8]: 398.33 u/L | ASPARTATE AMINOTRANSFERASE [8]: 87.67 u/L | CARBON DIOXIDE [8]: 23.33 mmol/L | CHOLESTEROL [8]: 81.33 mg/dL | CREATINE PHOSPHOKINASE [8]: 415.67 u/L | CREATININE [8]: 0.21 mg/dL | LACTATE DEHYDROGENASE [8]: 589.67 u/L | POTASSIUM [8]: 6.91 MEQ/L | SODIUM [8]: 145.83 MEQ/L | TOTAL BILIRUBIN [8]: 0.2 mg/dL | TOTAL PROTEIN [8]: 6.1 G/DL | ABSOLUTE BASOPHIL [9]: 0 CELLS/uL | ABSOLUTE EOSINOPHIL [9]: 278.33 CELLS/uL | ABSOLUTE LYMPHOCYTE [9]: 15424.33 CELLS/uL | ABSOLUTE MONOCYTE [9]: 421.67 CELLS/uL | ABSOLUTE SEGMENTED NEUTROPHIL [9]: 1375.67 CELLS/uL | BASOPHIL [9]: 0% | ERYTHROCYTE COUNT [9]: 5.85 x10E6/uL | HEMATOCRIT [9]: 36.97% | HEMOGLOBIN [9]: 14.03 G/DL | LEUKOCYTE COUNT [9]: 17.5 x10E3/uL | LYMPHOCYTE [9]: 88% | MEAN CORPUSCULAR HEMOGLOBIN [9]: 24.07 pg | MEAN CORPUSCULAR HEMOGLOBIN CONCENTRATION [9]: 37.97 G/DL | NEUTROPHIL [9]: 8% | NUCLEATED RED BLOOD CELLS [9]: 0 /100WBC | PLATELET COUNT [9]: 1344.67 x10E3/uL | ALANINE AMINOTRANSFERASE [10]: 53.33 u/L | ALBUMIN [10]: 4.2 G/DL | ALKALINE PHOSPHATASE [10]: 358.67 u/L | ASPARTATE AMINOTRANSFERASE [10]: 83 u/L | BLOOD UREA NITROGEN [10]: 16.67 mg/dL | CARBON DIOXIDE [10]: 26.33 mmol/L | CHLORIDE [10]: 106.67 MEQ/L | CHOLESTEROL [10]: 68 mg/dL | CREATINE PHOSPHOKINASE [10]: 219.67 u/L | CREATININE [10]: 0.19 mg/dL | GLUCOSE [10]: 172 mg/dL | LACTATE DEHYDROGENASE [10]: 98 u/L | LIPASE [10]: 10 u/L | PHOSPHORUS [10]: 12.93 mg/dL | POTASSIUM [10]: 6.64 MEQ/L | SODIUM [10]: 146.2 MEQ/L | TOTAL BILIRUBIN [10]: 0.2 mg/dL | TOTAL PROTEIN [10]: 6.13 G/DL | URIC ACID [10]: 2.37 mg/dL

Source: ChEMBL document CHEMBL3885881, “DrugMatrix”
